# Measured values from patent US20250214960A1, “COMPOUNDS HAVING ACTIVITY OF DEGRADING GSPT1 AND APPLICATION THEREOF” (SHANGHAI MEIZER PHARMACEUTICALS CO., LTD., priority 2021, published 2025).
# Where two headings read alike, the source gives them in different places.
# Columns and labels:
# Format in all cases: cell-based
# GSPT1 protein = biological target: T1, GSPT1 protein (Homo sapiens, UniProt P15170+Q96SW2); assay: Western blot detection of degradation activity of GSPT1 protein in Jeko-1 cells; conditions: JeKo-1, 24 h, read-out: GSPT1 degradation rate (%)
# T1 construct: endogenous in cells; host or cells: Jeko-1
# T1 sequence (P15170 whole entry): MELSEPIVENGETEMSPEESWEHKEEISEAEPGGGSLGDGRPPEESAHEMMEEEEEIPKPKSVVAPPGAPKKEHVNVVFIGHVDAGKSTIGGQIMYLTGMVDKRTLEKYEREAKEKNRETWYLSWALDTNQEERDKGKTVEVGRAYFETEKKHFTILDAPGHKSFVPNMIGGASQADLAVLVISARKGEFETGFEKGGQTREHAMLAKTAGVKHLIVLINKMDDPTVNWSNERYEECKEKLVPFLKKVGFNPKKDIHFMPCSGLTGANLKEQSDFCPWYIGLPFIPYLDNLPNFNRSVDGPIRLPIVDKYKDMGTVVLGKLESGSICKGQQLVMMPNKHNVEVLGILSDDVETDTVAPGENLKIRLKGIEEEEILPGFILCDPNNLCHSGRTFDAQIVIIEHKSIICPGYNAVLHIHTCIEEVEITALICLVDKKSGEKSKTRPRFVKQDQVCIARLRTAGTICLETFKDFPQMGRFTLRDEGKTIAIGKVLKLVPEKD
# T1 sequence (Q96SW2 whole entry): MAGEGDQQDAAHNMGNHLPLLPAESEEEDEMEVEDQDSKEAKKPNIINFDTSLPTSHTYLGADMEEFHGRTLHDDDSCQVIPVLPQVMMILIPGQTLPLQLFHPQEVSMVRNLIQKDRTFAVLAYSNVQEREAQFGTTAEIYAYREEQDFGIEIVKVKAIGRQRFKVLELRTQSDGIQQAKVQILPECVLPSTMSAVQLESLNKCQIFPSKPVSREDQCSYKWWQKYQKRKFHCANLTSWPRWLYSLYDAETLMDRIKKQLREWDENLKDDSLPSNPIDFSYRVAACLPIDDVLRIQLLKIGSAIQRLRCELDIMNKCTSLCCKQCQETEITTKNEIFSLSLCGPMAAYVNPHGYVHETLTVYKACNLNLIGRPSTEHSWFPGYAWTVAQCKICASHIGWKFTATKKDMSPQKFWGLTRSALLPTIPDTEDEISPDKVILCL
# T1 sequence (Q16531 whole entry partner): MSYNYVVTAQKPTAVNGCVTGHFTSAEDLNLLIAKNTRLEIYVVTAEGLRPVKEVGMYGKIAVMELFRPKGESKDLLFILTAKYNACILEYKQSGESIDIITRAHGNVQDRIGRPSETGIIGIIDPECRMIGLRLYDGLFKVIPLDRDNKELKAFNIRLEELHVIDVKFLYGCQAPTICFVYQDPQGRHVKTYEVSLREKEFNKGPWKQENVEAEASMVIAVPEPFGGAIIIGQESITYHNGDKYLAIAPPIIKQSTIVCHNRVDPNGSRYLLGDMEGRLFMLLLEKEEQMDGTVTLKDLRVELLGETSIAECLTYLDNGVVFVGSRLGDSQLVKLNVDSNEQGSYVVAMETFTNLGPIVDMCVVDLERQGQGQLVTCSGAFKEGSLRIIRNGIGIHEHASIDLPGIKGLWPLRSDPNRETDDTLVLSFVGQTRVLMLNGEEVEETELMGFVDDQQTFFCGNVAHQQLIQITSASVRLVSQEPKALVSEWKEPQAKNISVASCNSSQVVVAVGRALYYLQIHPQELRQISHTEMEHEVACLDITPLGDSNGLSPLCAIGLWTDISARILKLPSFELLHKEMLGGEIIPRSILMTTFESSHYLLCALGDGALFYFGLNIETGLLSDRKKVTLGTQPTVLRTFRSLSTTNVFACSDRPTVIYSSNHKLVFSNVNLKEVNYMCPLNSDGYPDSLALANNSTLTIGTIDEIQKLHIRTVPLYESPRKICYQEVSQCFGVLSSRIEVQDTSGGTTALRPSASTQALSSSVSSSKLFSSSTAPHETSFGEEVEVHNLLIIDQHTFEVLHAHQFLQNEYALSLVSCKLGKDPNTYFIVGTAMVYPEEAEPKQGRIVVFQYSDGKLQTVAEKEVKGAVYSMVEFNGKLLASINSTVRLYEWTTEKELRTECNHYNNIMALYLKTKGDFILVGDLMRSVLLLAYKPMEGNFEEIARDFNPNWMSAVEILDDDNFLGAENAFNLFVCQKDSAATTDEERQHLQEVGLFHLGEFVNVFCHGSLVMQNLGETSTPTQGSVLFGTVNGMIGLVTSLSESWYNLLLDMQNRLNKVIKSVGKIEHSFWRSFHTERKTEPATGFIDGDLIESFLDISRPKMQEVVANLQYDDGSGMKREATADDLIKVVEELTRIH
# Description: Test Example 1: Western Blot Detection of Degradation Activity of GSPT1 Protein by the Compounds
# Cell line: Jeko-1 cell line was cultured with an RPMI1640 media containing 20% fetal bovine serum in an incubator at 37° C., 5% CO2, and saturated humidity.
# DMSO control group and test compound (concentration shown in the table below) were set up, after processing for 24 hours, the cells were collected, pre-cooled cell lysate was added and left on ice for 10 minutes. The total protein of the cells was extracted, and the protein concentration was measured and quantified using the BCA method. Routine gel preparation, sample loading, electrophoresis were conducted, then the membrane was transferred, and sealed, wherein the primary antibody was diluted with a blocking solution at 1:500-5000. The membrane was immersed in the diluted primary antibody and incubated overnight at 4° C. After rinsing, the secondary antibody was diluted with a sealing solution at 1:10000-20000, the membrane was immersed in the diluted secondary antibody, and incubated at room temperature for 45 minutes. After rinsing, the results were tested on ODYSSEY (Li-COR). GAPDH was used as an internal reference control.
# Image J software was used to perform gray level analysis on each band and the degradation rate of GSPT1 protein by the compounds was calculated.
# HL-60 cells = assay: CTG method, inhibition of HL-60 cell proliferation; conditions: Homo sapiens; HL-60, 72 hours; read-out: Cellular proliferation inhibition IC50
# Description: (§1) Test Example 2: CTG Method for Detecting the Inhibitory Effect of Compounds of Formula on the Proliferation of HNT 34 or HL-60 Cells
# (§2) HNT-34 or HL-60 cells were taken and cultured in RPMI1640 medium containing 20% fetal bovine serum. The cells were inoculated on a 96 well plate, with 1×10^4 cells per well, and incubated at 37° C. in a […] incubator. After adding the test compound, it was incubated for 72 hours. Then an appropriate amount of CTG reagent was added, the luminescence value was measured, and the inhibition rate was calculated.
# HNT-34 cells = assay: CTG method, inhibition of HNT-34 cell proliferation; conditions: HNT-34, 72 hours; read-out: Cellular proliferation inhibition IC50
# Description: as §1, §2
SMILES,"inhibition at 0.1 µM (GSPT1 protein; 100 nM, Jeko-1 cells, 24 hours) [%]","inhibition at 10 µM (GSPT1 protein; 10 μM, Jeko-1 cells, 24 hours) [%]",IC50 (HL-60 cells) [nM],IC50 (HNT-34 cells) [nM],other results
"CCN(C(=O)OC(C)(C)C)[C@H](C(=O)NCc1ccc2c(c1)CN(C1CCC(=O)NC1=O)C2=O)c1ccccc1 (stereo partly drawn) [Compound 1-89, Tert butyl ((1S)-2-((2-(2,6-dioxypiperidin-3-yl)-1-oxoisoindoline-5-yl)methyl)amino)-2-oxo-1-phenylethy 1) (ethyl) carbamate]",97.8,98.7,5,3.8,
"CC(C)C[C@@H](NC(=O)OC(C)(C)C)C(=O)NCc1ccc2c(c1)CN(C1CCC(=O)NC1=O)C2=O (stereo partly drawn) [Compound 4-123, Tert butyl ((2R)-1-((2-(2,6-dioxypiperidin-3-yl)-1-oxoidoline-5-yl)methyl)amino)-4-methyl-1-oxolan-2-yl) carbamate]",79.9,92.7,28.9,26.9,
"CN(C(=O)OC(C)(C)C)[C@H](C(=O)NCc1ccc2c(c1)CN(C1CCC(=O)NC1=O)C2=O)c1ccccc1 (stereo partly drawn) [Compound 4-135, Tert butyl ((1S)-2-((2-(2,6-dioxypiperidin-3-yl)-1-oxoisoindoline-5-yl)methyl)amino)-2-oxo-1-phenylethy 1) (methyl) carbamate]",80,93,14.3,6.2,
"O=C1CCC(N2Cc3cc(CNC(=O)C(CNC(=O)Oc4ccccc4)c4ccccc4)ccc3C2=O)C(=O)N1 (centres unmarked) [Compound 5-10, Phenyl (3-((2-(2,6-dioxypiperidin-3-yl)-1-oxoisoindolin-5-yl)methyl)amino)-3-oxo-2-phenylpropyl) carbamate]",,,37.7,36.9,inhibition at 0.1 µM (GSPT1 protein): 73%; inhibition at 10 µM (GSPT1 protein): 90%
"CN(C(=O)OC(C)(C)C)[C@@H](C(=O)NCc1ccc2c(c1)CN(C1CCC(=O)NC1=O)C2=O)c1ccccc1 (stereo partly drawn) [Compound 5-31, Tert butyl ((1R)-2-((2-(2,6-dioxypiperidin-3-yl)-1-oxoisoindoline-5-yl)methyl)amino)-2-oxo-1-phenylethy 1) (methyl) carbamate]",84,99,12.5,6.6,
"CN(C(=O)OC(C)(C)C)C(C(=O)NCc1ccc2c(c1)CN(C1CCC(=O)NC1=O)C2=O)c1ccc(Cl)c(Cl)c1 (centres unmarked) [Compound 5-76, Tert butyl (1-(3,4-dichlorophenyl)-2-((2-(2,6-dioxopyridin-3-yl)-1-oxoisoidoline-5-yl)methyl)amino)-2-oxoethyl (methyl) carbamate]",65.2,84.6,,,
"CC(C)(C)OC(=O)O[C@H](C(=O)NCc1ccc2c(c1)CN(C1CCC(=O)NC1=O)C2=O)c1ccccc1 (stereo partly drawn) [Compound 5-82, Tert butyl ((1S)-2-((2-(2,6-dioxypiperidin-3-yl)-1-oxoisoindoline-5-yl)methyl)amino)-2-oxo-1-phenylethy 1) carbonate]",29.8,74.8,,,
"O=C1CCC(N2Cc3cc(CNC(=O)[C@H](CC4CCCCC4)NC(=O)OC4CCCC4)ccc3C2=O)C(=O)N1 (stereo partly drawn) [Compound 5-93, Cyclopentyl ((2S)-3-cyclohexyl-1-((2-(2,6-dioxopyridin-3-yl)-1-oxoisoidoline-5-yl)methyl)amino)-1-oxopropan-2-yl) carbamate]",,,,,inhibition at 0.1 µM (GSPT1 protein): 99%; inhibition at 10 µM (GSPT1 protein): 100%
O=C1CCC(N2Cc3cc(CNC(=O)[C@@H](CNC(=O)C4CCCC4)c4ccccc4)ccc3C2=O)C(=O)N1 (some centres unmarked) [Compound 5-95],16,70,,,
"CC(C)(C)OC(=O)NC(CC(=O)NCc1ccc2c(c1)CN(C1CCC(=O)NC1=O)C2=O)C1CCCC1 (centres unmarked) [Compound 5-99, Tert butyl (1-cyclopentyl-3-((2-(2,6-dioxypiperidin-3-yl)-1-oxoisoindoline-5-yl)methyl)amino)-3-oxopropyl) carbamate]",98,99,,,
"O=C1CCC(N2Cc3cc(CNC(=O)[C@@H](NC(=O)OC4CCOC4)c4ccccc4)ccc3C2=O)C(=O)N1 (stereo partly drawn) [Compound 6-01, ((1S)-2-(((2-(2,6-dioxopyridin-3-yl)-1-oxoisoindoline-5-yl)methyl)amino)-2-oxo-1-phenylethyl) carbamate-β-Oxocyclopentanol Ester]",,,,,inhibition at 0.01 µM (GSPT1 protein): 10%; inhibition at 1 µM (GSPT1 protein): 68%
"O=C1CCC(N2Cc3cc(CNC(=O)[C@@H](NC(=O)OC4CCCCC4)c4ccccc4)ccc3C2=O)C(=O)N1 (stereo partly drawn) [Compound 6-02, ((1S)-2-(((2-(2,6-dioxypiperidin-3-yl)-1-oxoisoindoline-5-yl)methyl)amino)-2-oxo-1-phenylethyl) carbamate Cyclohexanol Ester]",,,,,inhibition at 0.01 µM (GSPT1 protein): 95%; inhibition at 1 µM (GSPT1 protein): 96%
"O=C1CCC(N2Cc3cc(CNC(=O)[C@@H](NC(=O)OC4CCOCC4)c4ccccc4)ccc3C2=O)C(=O)N1 (stereo partly drawn) [Compound 6-03, ((1S)-2-(((2-(2,6-dioxopyridin-3-yl)-1-oxoisoindoline-5-yl)methyl)amino)-2-oxo-1-phenylethyl) carbamate-γ-Oxyhexanol Ester]",,,,,inhibition at 0.01 µM (GSPT1 protein): 28%; inhibition at 1 µM (GSPT1 protein): 90%

# More lines, main results first:
"inhibition at 0.1 µM (GSPT1 protein; 100 nM, Jeko-1 cells, 24 hours) [%]","inhibition at 10 µM (GSPT1 protein; 10 μM, Jeko-1 cells, 24 hours) [%]",IC50 (HL-60 cells) [nM],SMILES,IC50 (HNT-34 cells) [nM],other results
79,86,14.3,"CC(C)(C)OC(=O)N[C@H](C(=O)NCc1ccc2c(c1)CN(C1CCC(=O)NC1=O)C2=O)c1ccc2ccccc2c1 (stereo partly drawn) [Compound 4-133, tert butyl ((1S)-2-((2-(2,6-dioxypiperidin-3-yl)-1-oxoisoidoline-5-yl)methyl)amino)-1-(naphthalene-2-yl)-2-oxoethyl) carbamate]",3.2,
82,97,,"CC(C)(C)OC(=O)N[C@H](C(=O)NCc1ccc2c(c1)CN(C1CCC(=O)NC1=O)C2=O)c1ccc(F)cc1 (stereo partly drawn) [Compound 4-136, Tert butyl ((1S)-2-((2-(2,6-dioxypiperidin-3-yl)-1-oxoisoidoline-5-yl)methyl)amino)-1-(4-fluorophenyl)-2-oxoethyl) carbamate]",3.6,
82,93,12.8,"Cc1ccc([C@H](NC(=O)OC(C)(C)C)C(=O)NCc2ccc3c(c2)CN(C2CCC(=O)NC2=O)C3=O)cc1 (stereo partly drawn) [Compound 4-166, Tert butyl ((1S)-2-((2-(2,6-dioxypiperidin-3-yl)-1-oxoisoindoline-5-yl)methyl)amino)-2-oxo-1-(p-tolyl) ethyl) carbamate]",11.3,
99,100,8.3,"CC(C)(C)OC(=O)NC(C(=O)NCc1ccc2c(c1)CN(C1CCC(=O)NC1=O)C2=O)c1ccccc1Cl (centres unmarked) [Compound 4-200, Tert butyl (1-(2-chlorophenyl)-2-((2-(2,6-dioxypiperidin-3-yl)-1-oxoisoindoline-5-yl)methyl)amino)-2-oxoethyl) carbamate]",3.2,
94,100,12.4,"CC(C)(C)OC(=O)N[C@H](C(=O)NCc1ccc2c(c1)CN(C1CCC(=O)NC1=O)C2=O)c1ccc(Br)cc1 (stereo partly drawn) [Compound 5-7, Tert butyl ((1S)-1-(4-bromophenyl)-2-((2-(2,6-dioxopyridin-3-yl)-1-oxoisoidoline-5-yl)methyl)amino)-2-oxoethyl) carbamate]",8.7,
,,4.6,"CC(C)(C)OC(=O)N[C@H](C(=O)NCc1ccc2c(c1)CN([C@H]1CCC(=O)NC1=O)C2=O)c1ccccc1Cl [Compound 5-17b, Tert butyl ((1S)-1-(2-chlorophenyl)-2-((2-((S)-2,6-dioxopyridin-3-yl)-1-oxoisoidoline-5-yl)methyl)amino)-2-oxoethyl) carbamate]",,"inhibition at 0.01 µM (GSPT1 protein; 10 nM, Jeko-1 cells, 24 hours): 57%; inhibition at 1 µM (GSPT1 protein; 1 μM, Jeko-1 cells, 24 hours): 100%"
96.2,95.5,,"CC(C)(C)OC(=O)N[C@H](Cc1ccccc1Cl)C(=O)NCc1ccc2c(c1)CN(C1CCC(=O)NC1=O)C2=O (stereo partly drawn) [Compound 5-83, Tert butyl ((2R)-3-(2-chlorophenyl)-1-((2-(2,6-dioxopyridin-3-yl)-1-oxoisoidoline-5-yl)methyl)amino)-1-oxopropan-2-yl) carbamate]",,
52.7,82.7,,"CC(C)C[C@H](NC(=O)OC(C)(C)C)C(=O)NCc1ccc2c(c1)CN(C1CCC(=O)NC1=O)C2=O (stereo partly drawn) [Compound 5-84, Tert butyl ((2S)-1-((2-(2,6-dioxypiperidin-3-yl)-1-oxoisoidoline-5-yl)methyl)amino)-4-methyl-1-oxapent-2-yl) carbamate]",,
